Structures are written as SMILES.

`CCCCOC(=O)[C@H]1CN(c2ccc3c(c2)oc(=O)n3C(C)C)C(=O)O1` showed a melting point of 86 to 89 °C. Compound `COC(=O)Cn1c(=O)n(C)c(=O)n(-c2cc(F)ccc2[N+](=O)[O-])c1=O` registered a melting point of 122 °C. For `Brc1ccc(C=Cc2csc3ccccc23)s1`, the melting point is 71.5 to 73 °C.

In the case of `O=C(O)c1ccc(C(=O)N2Cc3ccccc3Cc3ccccc32)cc1`, the melting point is 220 to 225 °C. Take `OC/C(=C(\CO)c1ccccc1)c1ccccc1`: the melting point came to 79 °C. Compound `CCOC(=O)c1nn(-c2ccc(Cl)cc2)c2c1CCC2` came in with a melting point of 122 to 123 °C. In the case of `O=C1NC(=O)C(=Cc2ccc(OCCc3ccccc3)cc2)S1` it was 185 to 187 °C; in that of `Nc1cc(/C=C/c2cc(/C=C/c3ccc4cc[nH]c4c3)[nH]n2)ccc1O`, 123 to 126 °C; in that of `COc1cccc(/C(=C\C=C\C(=O)NCCCCc2cccnc2)c2ccccc2)c1`, 89 to 91 °C.

As to `O=C(N[C@H]1C[C@H](C(=O)O)Nc2cc(Cl)cc(Cl)c21)C1c2ccccc2-c2ccccc21` (relative stereo), the melting point is 266 to 268 °C. As for `CC1(CCCCn2c(=O)oc3ccccc32)Cn2cc([N+](=O)[O-])nc2O1` (centres undefined), the melting point fell in the range of 155 to 158 °C. In the case of `CCc1cccc(C)c1CNc1cc(C(N)=O)cc2c1nc(C)n2C` it was 240 to 241 °C; in that of `O=C(O)Cc1c(C(=O)c2cc(Cl)ccn2)[nH]c2cc(Cl)ccc12`, 233 to 234 °C. `Cc1ccc(-c2cccc(C(=O)O)c2)cc1`: the melting point lay within 182 to 187 °C.

For `Cc1ncoc1C(O)c1ccc(F)cc1` (centres undefined), the melting point was in the range of 102 to 104 °C. To `Cc1ccc(NC(=O)NCc2ccc3c(c2)C(=O)N(C2(C)CCC(=O)NC2=O)C3=O)cc1Cl` (centres undefined) belongs 232 to 234 °C; to `CCCCCCCCCCCCCCOc1cccc(CBr)c1`, 34 to 35 °C; to `O=c1c2ccc(-c3nnn[nH]3)cc2oc2ccc(OCCO)cc12`, 270 °C. To `N=C(Nc1ccccc1-c1ccccc1)N1CCOCC1` belongs 153 to 154 °C; to `Cc1c(N)cccc1-c1cn(C)c(=O)c(Nc2ccc(C(=O)N3CCOCC3)cc2)n1`, 274 to 275 °C. To `CCN(Cc1c(F)cccc1Cl)c1c([N+](=O)[O-])cc(C(F)(F)F)c(Cl)c1[N+](=O)[O-]` belongs 118 to 125 °C; to `CN1Cc2c(-c3nc(CCl)cs3)ncn2-c2ccc(F)c(Cl)c2C1=O`, 234 to 235 °C. As for `Cc1cccc2c1ccc1c3occ(C)c3c(=O)oc21`, the melting point lay within 173 to 175 °C. `CCCc1ccc(-c2ccn([C@H](CC(=O)O)C(=O)N[C@H](C(=O)NC)C(C)(C)C)c2)cc1`: the melting point fell in the range of 104 to 106 °C. For `O=C(O)c1ncn2c1CN(C(=O)N1CCCC1)c1ccccc1-2`, the melting point was 197 to 200 °C.

On to `COc1cc(OC)nc(Oc2cccc(OC(F)F)c2C(=O)O)n1`, for which the melting point lay in the range of 113 to 115 °C. In the case of `CCCCC/C=C\C/C=C\CCCCCCCC(=O)Nc1c(OC)cc(OC)cc1OC`, the melting point lay within 87 to 89 °C. The compound `Cn1cc(C(F)(F)F)c(CS(=O)(=O)C2=NOC(C)(C)C2)n1` had a melting point of 125 to 126 °C. To `COc1cc2c(c(Cl)c1Cl)C(=O)C(C)(C)C2(C)c1ccccc1` (centres undefined) belongs 189 to 190 °C; to `Cc1cc(SC(C)C)c(NC(=O)CCCCSc2nc3ccccc3s2)c(SC(C)C)n1`, 107 to 109 °C; to `O=[N+]([O-])C=Cc1cccc(Cl)c1Cl`, 89 to 91 °C. In the case of `CC1CN(c2cc3ccccc3c(=O)[nH]2)CCN1` (centres undefined) it was 164 to 167 °C; in that of `COC(=O)Nc1nc2cnc3ccccc3c2n1CC(C)(C)O`, 225 °C. In the case of `COc1snc(OCC#CI)c1C#N` it was 159 to 160 °C; in that of `Cc1c(C(=O)OCc2ccccc2)sc2ccc3[nH]c4c(c3c12)CN(C)CC4`, 174 °C. The compound `CCOC(=O)c1cnn2c(-c3ccccc3C(F)(F)F)ccnc12` had a melting point of 148 to 149 °C. In the case of `CCCc1c(OCCCOc2cc(N)c(Cl)cc2C)ccc(C(C)=O)c1O`, the melting point turned out to be 81 °C.

Turning to `O=S(=O)(Nc1ccccc1O)c1ccccc1`, the melting point was found to be 140 °C. In the case of `O=c1ncc(Cl)cn1CC(O)CCl` (centres undefined) it was 159 to 162 °C; in that of `N#Cc1nn(-c2c(Cl)cc(Cl)cc2Cl)cc1C1CC1(Br)Br` (centres undefined), 164 °C. On to `Cc1nc2sc3ccccc3n2n1`, for which the melting point lay in the range of 75 to 76 °C. In the case of `CCCCCCCCCC/C=C/c1ccccc1/C=C/C(=O)O` it was 85 to 86 °C; in that of `CCOC(=O)C=Cc1ccc(CCNS(=O)(=O)CCc2ccc(Cl)cc2)cc1`, 91 to 92 °C; in that of `CC(C)CCNC(=O)c1ccccc1-c1ccccc1CNS(=O)(=O)c1cccc(F)c1`, 141 °C. To `O=C1c2ccc(SCCO)cc2C(=O)c2cc3ccccc3cc21` belongs 195 to 196 °C; to `Cc1nc(Cc2ccccc2N)n[nH]1`, 143 to 145 °C.

In turn, `Fc1cc(-c2cc(C(F)(F)F)n3ncc(-c4cccnc4)c3n2)ccc1C(F)(F)F` yielded a melting point of 162 °C. As to `FC(F)C(F)(F)Sc1nc(-c2ccco2)c(-c2ccco2)[nH]1`, the melting point was in the range of 166 to 167 °C. `Cc1c(NC(=O)CC(C)(C)C)cc2c(c1C)O[C@@H](C)[C@H]2c1ccc(C(C)C)cc1` (relative stereo) registered a melting point of 94 to 95 °C. For the compound `COc1cc(CCCO)c(Br)cc1OCc1ccc(Cl)cc1Cl`, the melting point lay within 102 to 103 °C. In the case of `CCC(Oc1ccc(Cl)cc1)C(=O)OC1CC(O)C=C2C=CC(C)C(CCC3CC(O)CC(=O)O3)C21` (mixture of isomers) it was 140 to 142 °C; in that of `O=C(O)c1ccc(CC2COc3ccc(OCc4ccc5ccccc5n4)cc3C2O)cc1` (centres undefined), 199 to 201 °C. Compound `COc1cc2c(cc1C#N)[C@@H](O)[C@H](Br)C(C)(C)O2` (relative stereo) yielded a melting point of 144 to 146 °C. To `COC(=O)[C@H](C)NC(=O)c1cccc([N+](=O)[O-])c1N` belongs 133 °C. To `COC(=O)c1c(-c2ccc(Cl)cc2)ccnc1Br` belongs 73 to 76 °C; to `CC1Cc2cc3c(cc2C(c2ccc([N+](=O)[O-])cc2)=NN1c1ncon1)OCO3` (centres undefined), 190 to 196 °C. In the case of `COc1cc(C(=O)c2ccc([N+](=O)[O-])cc2)c(CC(=O)O)cc1Br` it was 189 to 192 °C; in that of `CCCc1cc(Cl)c2oc(Cc3ccc(O)cc3)c(C)c2c1O`, 142 to 143 °C. `COc1cc(C)c(S(=O)(=O)N(C)C)cc1[N+](=O)[O-]` displayed a melting point of 130 to 132 °C. The compound `CC(C)(C)OC(=O)NCC(=O)NCc1ccc(Nc2n[nH]c3ncnc(Nc4cccc(Cl)c4)c23)cc1` registered a melting point of 205 °C. In the case of `CC(C(=O)Nc1ccc2c(c1)CC(=O)N2)N1CCC(Cc2ccccc2)CC1` (centres undefined) it was 153 to 155 °C; in that of `N#CC1CN1C(=O)c1cc2ccccc2o1` (centres undefined), 92 to 94 °C; in that of `O=c1c(O)c(-c2ccccn2)oc2ccc(OCc3ccc(F)cc3)cc12`, 204 to 205 °C. For `CN1CCN(C)C(c2ccc([N+](=O)[O-])cc2)C1=O` (centres undefined), the melting point fell in the range of 99 to 102 °C.

The record behind these values is a melting point compilation (Tetko et al.; mined from patent text by program, amines drawn as free bases though some values may be those of a salt).
